In the oligonucleotide strings, read from the 5' end, every base follows the letter of its sugar. An asterisk marks phosphorothioate; unmarked linkages are phosphodiester. Other units and linkages are bracketed, terminal groups are in braces. A string of capitals states the bases alone. e = 2'-O-(2-methoxyethyl) (MOE); [5mC] = 5-methylcytosine
System: mir-15a pri-miRNA
Experiment: mir-15a pri-miRNA expression in T47D cells (real-time RT-PCR)
Type: cell-based, human
Conditions: real-time RT-PCR
In short: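 T47D cells transfected with 100 nM uniform 2′-MOE or gapmer oligomers. Pri-miRNA measured by real-time RT-PCR with a mir-15a-specific primer/probe set, normalized to 5.8S rRNA, expressed as percentage of untreated control RNA levels.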

Substance | mir-15a pri-miRNA expression % UTC [% UTC]
327901 (antisense eT*eG*eA*eG*e[5mC]*eT*eA*e[5mC]*eA*eG*eT*eG*e[5mC]*eT*eT*e[5mC]*eA*eT*e[5mC]*eT*e[5mC]*eA) [compound 327901] | 132
327951 (antisense e[5mC]*eA*e[5mC]*eA*eA*eA*e[5mC]*e[5mC]*eA*eT*eT*eA*eT*eG*eT*eG*e[5mC]*eT*eG*e[5mC]*eT*eA) [compound 327951] | 713
